PubChem BioAssay (NCI)
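1) Cells in 96-well plates. 2) Compound, 48 h, 5 concentrations. 3) Linear interpolation between surrounding doses. 4) Unreached endpoint = highest concentration. TGI marks complete inhibition of growth.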

Assays:
Assay in all cases: NCI tumour cell line growth inhibition, 48 h
ACHN renal = test system: ACHN renal
DMS 273 small cell lung = test system: DMS 273 small cell lung
K-562 leukemia = test system: K-562 leukemia
KM20L2 colon = test system: KM20L2 colon
LOX IMVI melanoma = test system: LOX IMVI melanoma
M19-MEL melanoma = test system: M19-MEL melanoma
NCI-H23 lung = test system: NCI-H23 lung
OVCAR-5 ovarian = test system: OVCAR-5 ovarian
OVCAR-8 ovarian = test system: OVCAR-8 ovarian
SF-539 CNS = test system: SF-539 CNS
SNB-78 CNS = test system: SNB-78 CNS
U251 CNS = test system: U251 CNS
UO-31 renal = test system: UO-31 renal

SMILES	TGI (ACHN renal) [µM]	TGI (DMS 273 small cell lung) [µM]	TGI (K-562 leukemia) [µM]	TGI (KM20L2 colon) [µM]	TGI (LOX IMVI melanoma) [µM]	TGI (M19-MEL melanoma) [µM]	TGI (NCI-H23 lung) [µM]	TGI (OVCAR-5 ovarian) [µM]	TGI (OVCAR-8 ovarian) [µM]	TGI (SF-539 CNS) [µM]	TGI (SNB-78 CNS) [µM]	TGI (U251 CNS) [µM]	TGI (UO-31 renal) [µM]
Cc1cc(N(CCC#N)CCC#N)ccc1/C(Sc1ccccc1)=C(\NC(=O)/C=C/c1ccccc1)C(=O)Sc1ccccc1	18.7	26.2	> 58.7	8.09	2.52	14.7	11.2	16.3	18.6	3.44	24.6	5.83	6.15
[N-]=[N+]=NC1(Cc2ccccc2)C(=O)Nc2ccccc2C1=O (configuration not stated)	> 100	> 100	> 100	> 100	> 100	> 100	> 100	> 100	> 100	> 100	> 100	> 100	> 100
O=C1NC(=S)NC(=O)C1=Cc1ccc([N+](=O)[O-])o1	34.6	37.8	86.7	43.1	38.7	36.8	31.9	34.6	66.9	61.1	49.3	> 100	> 100
CC(=O)c1ccc(NC(=O)C(=O)CC(=O)c2sc(-n3nc(-c4ccccc4)cc3-c3ccccc3)nc2C)cc1	> 100	> 100	> 100	> 100	> 100	> 100	> 100	> 100	> 100	> 100	> 100	> 100	> 100
